Source: patent US10065988B2, “Peptoid affinity ligands” (Stefano Menegatti, priority 2013, dated 2018)
*1 amine or outer side, *2 acyl side, *3 side chain or, on linkers, in order; H or OH if unused. Where a SMILES comes first, the peptide text is derived from it. [ ]: non-standard residue; d: D form. Gly(N(CH2)2(3-indolyl)) = O=C(O)CNCCc1c[nH]c2ccccc12; Gly(N-(CH2)3-guanidino) = N=C(N)NCCCNCC(=O)O; X1 = O=C(CN(CCc1ncc[nH]1)[*:1])[*:2]; Gly(N(CH2)3NH2) = NCCCNCC(=O)O; N(iPr)Gly = CC(C)NCC(=O)O

These compounds were tested on human IgG (hIgG) (assay: Batch mode IgG binding to peptoid-functionalized Toyopearl AF-amino 650 M resin). Conditions: polyclonal hIgG 0.5 mg/mL in PBS, 2 mg hIgG per mL resin, 45 min at 22° C., elution 0.1 M glycine pH 2.5, ELISA and SDS-PAGE (FIG. 1, FIG. 2).
Description: FIG. 1. Batch mode IgG adsorption to Toyopearl AF-amino 650 M resins functionalized with different peptoid ligands. IgG in the flow-through fractions (black) indicate the percent hIgG that was not adsorbed to the resin relative to the mass of hIgG loaded. The elution fractions (grey) indicate the percent of human IgG that was bound in phosphate buffered saline (PBS) and eluted (0.1 M glycine, pH 2.5) relative to the initial concentration of IgG that was loaded. Concentrations of hIgG in all fractions were determined by ELISA. The unmodified resin served as the negative control. Binding trials were done in duplicate for each resin.
FIG. 2. Reducing SDS-PAGE analysis of elution and flow-through fractions from hIgG adsorption experiments. Lanes designated “FT” and “Elute” are the flow-through and elution fractions, respectively. The lane marked “hIgG loaded” is the pre-adsorbed hIgG solution that was incubated with each resin tested. The heavy and light chains of hIgG migrate at ˜55 and ˜25 kDa, respectively, on reducing SDS-PAGE gels.
IgG Binding to Resin: The ability of the peptoid affinity ligands to bind human IgG (hIgG) was tested in batch mode. A 50% slurry of the resin was prepared, of which 200 μl (˜100 mg resin) was transferred into the spin column. The resin was throughly washed with dH2O and equilibrated with PBS prior to hIgG exposure. Polyclonal hIgG (Equitech-Bio) was diluted to 0.5 mg/mL with PBS. After equilibration, a 0.5 mg/mL solution of hIgG was added to the resin to achieve a ratio of 2 mg hIgG per mL of resin, and allowed to incubate for 45 min at 22° C. with vigorous shaking. After incubation, the resin was centrifuged at 500×g for 2 min in which the filtrate of this step was collected and labeled as “flow-through” fraction. The resin was subsequently washed 2× with PBS. Elution buffer (0.1 M glycine, pH 2.5) was added to the resin and mixed vigorously for 10 min at 22° C. After centrifugation (500×g for 2 min) bound hIgG was eluted from the resin and collected in the filtrate. The amount of hIgG found in the flow-through and elution fraction was determined using an ELISA-based quantitative assay (Bethyl, Cat. No. E80-104). hIgG yields were determined as the ratio of hIgG mass in the elution fraction and hIgG mass in the loading solution (FIG. 1). SDS-PAGE analysis of all collected fractions was carried out to determine product purity and evaluate the ligand selectivity (FIG. 2).

Ability of the peptoid affinity ligands to bind human IgG (hIgG) to the resin, useful for binding IgG to the resin:
N=C(N)NCCCN(CC(=O)NCC(=O)O)C(=O)CN(CCc1c[nH]c2ccccc12)C(=O)CNCCc1ncc[nH]1 [Ligand G003], CC(C)N(CC(=O)O)C(=O)CN(CCc1c[nH]c2ccccc12)C(=O)CNC(=O)CN(CCCN)C(=O)CN(CCc1c[nH]c2ccccc12)C(=O)CNCCc1ncc[nH]1 [Ligand G012] (H-[X1][Gly(N(CH2)2(3-indolyl))][Gly(N(CH2)3NH2)]G[Gly(N(CH2)2(3-indolyl))][N(iPr)Gly]-OH), CC(C)N(CC(=O)O)C(=O)CN(CCc1c[nH]c2ccccc12)C(=O)CNC(=O)CN(CCCNC(=N)N)C(=O)CN(CCc1c[nH]c2ccccc12)C(=O)CNCCc1ncc[nH]1 [Ligand G001] (H-[X1][Gly(N(CH2)2(3-indolyl))][Gly(N-(CH2)3-guanidino)]G[Gly(N(CH2)2(3-indolyl))][N(iPr)Gly]-OH), N=C(N)NCCCN(CC(=O)O)C(=O)CN(CCc1c[nH]c2ccccc12)C(=O)CNCCc1ncc[nH]1 [Ligand G005]
